Earlier results, collected in patent publication US20190175510A1, “PHARMACEUTICAL MATRIX FORMULATIONS COMPRISING DIMETHYL FUMARATE” (BIOGEN MA INC., priority 2014, published 2019).
Counter-ions that a name gives are not always drawn.

Conditions: species not stated

In the case of `COC(=O)/C=C/C(=O)O` [MMF, monomethyl fumarate], the “half-life of MMF” value is listed as “approximately 1 hour”.
